The source of these data is ChEMBL document CHEMBL3352625, “Development of novel neurokinin 3 receptor (NK3R) selective agonists with resistance to proteolytic degradation” (J Med Chem, 2014).

For assay [1], the target named is T1, Neuromedin-K receptor (Homo sapiens, UniProt P29371).
T1 sequence (P29371 whole entry): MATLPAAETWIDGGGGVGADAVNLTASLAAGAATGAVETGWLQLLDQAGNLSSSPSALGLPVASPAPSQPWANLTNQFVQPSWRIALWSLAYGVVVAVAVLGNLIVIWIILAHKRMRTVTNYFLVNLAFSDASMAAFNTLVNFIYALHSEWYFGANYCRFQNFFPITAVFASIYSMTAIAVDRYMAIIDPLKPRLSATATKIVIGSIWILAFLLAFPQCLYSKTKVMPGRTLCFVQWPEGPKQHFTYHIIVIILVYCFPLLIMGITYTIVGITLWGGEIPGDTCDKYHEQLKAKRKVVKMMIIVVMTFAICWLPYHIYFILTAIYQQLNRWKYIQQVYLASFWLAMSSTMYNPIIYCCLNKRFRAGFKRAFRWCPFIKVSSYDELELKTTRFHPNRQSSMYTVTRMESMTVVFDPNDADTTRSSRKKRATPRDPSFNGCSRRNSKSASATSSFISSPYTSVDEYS
Put plainly: Displacement of [125I]His3, MePhe7 from human NK3R expressed in CHO cell membranes by scintillation counting.

Assay [2] concerns the target T1, Neuromedin-K receptor. Put plainly: Agonist activity at human NK3R expressed in CHO cells assessed as potentiation of senktide-induced effect. The assay is classed as cell-based.
The target in assay [3] is T1, Neuromedin-K receptor. The assay can be described thus: (§1) Agonist activity at human NK3R expressed in CHO cells assessed as induction of Ca2+ influx […]. The assay is classed as functional, cell-based.
In assay [4] the target is Substance-P receptor (Homo sapiens) (UniProt P25103). Put plainly: Displacement of [125I]-BH-SP from human NK1R expressed in CHO cell membranes at 10 uM by scintillation counting. For orientation: In a radioligand displacement assay an active substance lowers the binding of a labelled ligand.
In assay [5] the target is T2, Substance-K receptor (Homo sapiens) (UniProt P21452).
T2 sequence (whole entry): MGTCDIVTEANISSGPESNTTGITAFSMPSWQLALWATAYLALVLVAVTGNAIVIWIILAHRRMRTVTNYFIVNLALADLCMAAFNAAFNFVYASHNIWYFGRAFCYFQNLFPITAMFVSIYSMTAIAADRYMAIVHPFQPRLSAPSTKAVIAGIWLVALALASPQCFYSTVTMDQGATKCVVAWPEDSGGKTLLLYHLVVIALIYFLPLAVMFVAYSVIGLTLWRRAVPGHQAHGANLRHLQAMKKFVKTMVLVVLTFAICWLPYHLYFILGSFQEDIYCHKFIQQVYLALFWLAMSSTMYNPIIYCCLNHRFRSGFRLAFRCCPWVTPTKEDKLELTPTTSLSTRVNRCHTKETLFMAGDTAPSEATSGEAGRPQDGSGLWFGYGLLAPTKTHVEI
The assay can be described thus: Displacement of [125I]-NKA from […] expressed in CHO cell membranes at 10 uM by scintillation counting.

The target of assay [6] is T3, Neuromedin-K receptor (Homo sapiens) (UniProt P29371).
T3 sequence (whole entry): T1 sequence (P29371 whole entry)
The assay is described as §1. The assay is classed as functional, cell-based.

The target of assay [7] is T4, Neuromedin-K receptor (Rattus norvegicus, UniProt P16177).
T4 sequence (P16177 whole entry): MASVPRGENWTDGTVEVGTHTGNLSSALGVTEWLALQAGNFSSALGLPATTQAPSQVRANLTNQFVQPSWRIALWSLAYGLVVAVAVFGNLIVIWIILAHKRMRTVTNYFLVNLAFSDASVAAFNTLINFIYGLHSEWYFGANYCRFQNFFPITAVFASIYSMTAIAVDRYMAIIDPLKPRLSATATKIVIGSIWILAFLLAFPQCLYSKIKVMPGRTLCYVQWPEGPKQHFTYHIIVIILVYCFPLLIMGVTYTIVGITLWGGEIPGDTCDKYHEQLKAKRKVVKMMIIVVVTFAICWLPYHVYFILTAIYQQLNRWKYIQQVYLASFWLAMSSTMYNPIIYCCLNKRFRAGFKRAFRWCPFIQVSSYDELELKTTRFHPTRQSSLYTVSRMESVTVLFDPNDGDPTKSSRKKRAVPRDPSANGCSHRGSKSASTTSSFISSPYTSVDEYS
Put plainly: Agonist activity at rat NK3R.

A short description of assay [8]: Agonist activity at cattle NK3R. Also on record: species or system Bos taurus.
Assay [9] can be described thus: Agonist activity at goat NK3R. Also on record: species or system Capra hircus.
Assay [10] is described as follows: Induction of GnRH release in ovariectomized goat assessed as induction of multiple-unit activity volley measured as duration of effect at 200 nmol, iv as single dose. The format is functional, Capra hircus.

Active and inactive are the calls of the source. The calls are words filed in the database; no cut-off is given here. *1 amine or outer side, *2 acyl side, *3 side chain or, on linkers, in order; H or OH if unused. Where a SMILES comes first, the peptide text is derived from it. [ ]: non-standard residue; d: D form. Glyψ(E-CHCH)Leu = CC(C)C[C@H](/C=C/CN[*:1])C(=O)[*:2]; X4 = CC(C)C[C@H](N/C(CN[*:1])=N\O)C(=O)[*:2]; X3 = CC(C)C[C@H](NC(=N)CN[*:1])C(=O)[*:2]; X1 = CC(C)C[C@H](CCCN[*:1])C(=O)[*:2]; X2 = CC(C)C/C(=C\CCN[*:1])C(=O)[*:2]; NMeF = CN[C@@H](Cc1ccccc1)C(=O)O; Suc = O=C(CCC(=O)[*:2])[*:1]

Substance-P receptor (Homo sapiens), sequence (P25103 whole entry): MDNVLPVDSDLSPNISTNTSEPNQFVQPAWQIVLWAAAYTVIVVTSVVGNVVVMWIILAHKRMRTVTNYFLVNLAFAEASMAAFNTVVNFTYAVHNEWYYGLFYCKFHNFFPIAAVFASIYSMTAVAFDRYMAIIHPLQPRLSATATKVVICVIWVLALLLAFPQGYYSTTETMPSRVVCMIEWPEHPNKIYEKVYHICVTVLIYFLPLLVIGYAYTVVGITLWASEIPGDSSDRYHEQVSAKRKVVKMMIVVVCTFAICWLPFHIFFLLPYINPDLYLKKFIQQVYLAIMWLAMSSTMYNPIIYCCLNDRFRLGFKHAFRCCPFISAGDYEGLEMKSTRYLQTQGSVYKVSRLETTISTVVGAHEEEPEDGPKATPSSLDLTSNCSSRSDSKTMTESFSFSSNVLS

One may read the IC50 as the concentration that inhibits the measured activity by half. Higher therefore signals a need for much substance. The EC50 is the midpoint of the concentration-response curve. Consider `CSCC[C@H](NC(=O)[C@@H](CCCNC(=O)[C@H](Cc1ccccc1)N(C)C(=O)[C@H](Cc1ccccc1)NC(=O)[C@H](CC(=O)O)NC(=O)CCC(=O)O)CC(C)C)C(N)=O` (Suc-DF[NMeF][X1]M-NH2), for which the IC50 at Neuromedin-K receptor [1] worked out at 19000 nM. Moreover, at Neuromedin-K receptor [2], the EC50 stood at 920 nM.

With `CN(C(=O)[C@@H](N)Cc1ccccc1)[C@@H](Cc1ccccc1)C(=O)NCC(=O)O` (H-Phe-[NMeF]-Gly-OH), the EC50 on Neuromedin-K receptor [3] was above 100000 nM.

By inhibition is commonly meant the percentage by which the read-out fell short of the control. A higher inhibition goes with a strong effect. `CSCC[C@H](NC(=O)[C@H](CC(C)C)NC(=O)CNC(=O)[C@H](Cc1ccccc1)N(C)C(=O)[C@@H](N)Cc1ccccc1)C(N)=O` (H-F[NMeF]GLM-NH2) registered a concentration for half-maximal inhibition (IC50) on Neuromedin-K receptor [1] of 2300 nM. The EC50 at Neuromedin-K receptor [3] was 350 nM. Also, the results for the inhibition in [4] and in [5] were 70% and 77%, respectively.

`CSCC[C@H](NC(=O)[C@H](CC(C)C)NC(=O)CNC(=O)[C@H](Cc1ccccc1)N(C)C(=O)[C@H](Cc1ccccc1)NC(=O)[C@H](Cc1ccccc1)NC(=O)[C@@H](N)CC(=O)O)C(N)=O` (H-DFF[NMeF]GLM-NH2): the IC50 at Neuromedin-K receptor [1] is 59 nM. Moreover, the half-maximal effective concentration (EC50) on Neuromedin-K receptor [3] came to 91 nM. Moreover, the values for the inhibition in assay [4] and in assay [5] were 15% and 73%, respectively.

Turning to `CSCC[C@H](NC(=O)[C@H](CC(C)C)NC(=N)CNC(=O)[C@H](Cc1ccccc1)N(C)C(=O)[C@H](Cc1ccccc1)NC(=O)[C@H](CC(=O)O)NC(=O)CCC(=O)O)C(N)=O` (Suc-DF[NMeF][X3]M-NH2), the IC50 at Neuromedin-K receptor [1] turned out to be 360 nM. The EC50 on Neuromedin-K receptor [2] was 100 nM.

The compound `CSCC[C@H](NC(=O)[C@H](CC(C)C)NC(=O)CNC(=O)[C@H](Cc1ccccc1)N(C)C(=O)[C@H](Cc1ccccc1)NC(=O)[C@H](Cc1ccccc1)NC(=O)[C@H](CC(=O)O)NC(=O)[C@@H](N)Cc1cnc[nH]1)C(N)=O` (H-HDFF[NMeF]GLM-NH2) displayed an IC50 on Neuromedin-K receptor [1] of 43 nM. For the same compound, at Neuromedin-K receptor [3], the EC50 amounted to 280 nM. Further, the values for the inhibition in assay [4] and in [5] were 18% and 74%, respectively.

On Neuromedin-K receptor [1], `CSCC[C@H](NC(=O)[C@H](CC(C)C)N/C(CNC(=O)[C@H](Cc1ccccc1)N(C)C(=O)[C@H](Cc1ccccc1)NC(=O)[C@H](CC(=O)O)NC(=O)CCC(=O)O)=N\O)C(N)=O` (Suc-DF[NMeF][X4]M-NH2) gave an IC50 of 1100 nM. Also, the EC50 at Neuromedin-K receptor [2] was 370 nM.

With `CN(C(=O)[C@H](Cc1ccccc1)NC(=O)[C@H](CC(=O)O)NC(=O)CCC(=O)O)[C@@H](Cc1ccccc1)C(=O)NCC(=O)O` (Suc-DF[NMeF]G-OH), in [6], the outcome was inactive.

Regarding `CSCC[C@H](NC(=O)[C@H](CC(C)C)NC(=O)CNC(=O)[C@H](Cc1ccccc1)N(C)C(=O)[C@@H](N)Cc1ccccc1)C(=O)O` (H-F[NMeF]GLM-OH), on Neuromedin-K receptor [3], the EC50 is above 100000 nM.

`CSCC[C@H](NC(=O)[C@H](CC(C)C)NC(=O)CNC(=O)[C@H](Cc1ccccc1)N(C)C(=O)[C@H](Cc1ccccc1)NC(=O)[C@@H](N)Cc1ccccc1)C(N)=O` (H-FF[NMeF]GLM-NH2) displayed a half-inhibitory concentration (IC50) at Neuromedin-K receptor [1] of 2900 nM. The EC50 at Neuromedin-K receptor [3] came to 240 nM. Moreover, the inhibition was 49% in assay [4] and 84% in assay [5].

On to `CSCC[C@H](NC(=O)/C(=C/CCNC(=O)[C@H](Cc1ccccc1)N(C)C(=O)[C@H](Cc1ccccc1)NC(=O)[C@H](CC(=O)O)NC(=O)CCC(=O)O)CC(C)C)C(N)=O` (Suc-DF[NMeF][X2]M-NH2), for which, on Neuromedin-K receptor [1], the IC50 was 13000 nM. Moreover, on Neuromedin-K receptor [2], the EC50 stood at 1900 nM.

Compound `CSCC[C@H](NC(=O)[C@@H](/C=C/CNC(=O)[C@H](Cc1ccccc1)N(C)C(=O)[C@H](Cc1ccccc1)NC(=O)[C@H](CC(=O)O)NC(=O)CCC(=O)O)CC(C)C)C(N)=O` (Suc-DF[NMeF][Glyψ(E-CHCH)Leu]M-NH2) yielded a half-inhibitory concentration (IC50) at Neuromedin-K receptor [1] of 56 nM. Moreover, the EC50 was 16 nM on Neuromedin-K receptor [2], 19 nM on Neuromedin-K receptor [7], 360 nM in [8] and 11 nM in assay [9]. In addition, in [10], the Time is 92.1 min.

For `CSCC[C@H](NC(=O)[C@@H](N)CC(C)C)C(N)=O` (H-Leu-Met-NH2), the outcome in assay [6] was inactive.

Regarding `CSCC[C@H](NC(=O)[C@H](CC(C)C)NC(=O)CNC(=O)[C@H](Cc1ccccc1)N(C)C(=O)[C@H](Cc1ccccc1)NC(=O)[C@H](Cc1ccccc1)NC(=O)[C@H](CC(=O)O)NC(=O)[C@H](Cc1cnc[nH]1)NC(=O)[C@@H](N)CCSC)C(N)=O` (H-MHDFF[NMeF]GLM-NH2), the IC50 on Neuromedin-K receptor [1] worked out at 22 nM. The concentration giving a half-maximal response (EC50) on Neuromedin-K receptor [3] turned out to be 330 nM. Besides, the inhibition is 22% in [4] and 78% in [5].
